{"source": "patent US20110110958A1", "about": "“COMPOSITIONS AND METHODS FOR THE TREATMENT OF NEOPLASIA” (UNIVERSITY OF FLORIDA RESEARCH FOUNDATION, priority 2007, published 2011)", "key": {"GL261 glioma cells": {"system": "GL261 glioma cells", "assay": "Cytotoxicity on GL261", "assay_type": "cell-based, mouse", "details": "increasing concentrations", "experimental": "(§1) T98G, U87MG, U118MG, A172, LN18, DBTRG-05MG, LN229, M059J, WT4 human glioma cell lines were purchased from American Type Culture Collection (Rockville, Md.). Cell culture was conducted according to the ATCC's recommendations, available at www.atcc.org. Normal human astrocytes (NHA) were purchased from Lonza Bioscience (Switzerland). Cell cultures were grown according to the vendor's recommendations for each cell line. GL261 mouse glioma cell line was obtained from NCI (Frederick, Md.) and was grown in RPMI (Gibco BRL, Grand Island, N.Y.) containing 10% FBS, 1% Penicillin-Streptomycin, and 4 mM L-glutamine at 37° C. with 5% CO2."}, "[1]": {"system": "ATF-4 protein levels in U118MG cell line", "assay": "Western blot of ATF-4, U118MG", "assay_type": "cell-based, human", "details": "U118MG, 24, 48, and 72 hours after J1 (10 and 25 μM)", "experimental": "(§2) Whole cell protein extracts were prepared using cold lysis buffer consisting of: M-Per mammalian protein extraction reagent (Pierce Biochemical, Rockford, Ill.), 30 mM sodium fluoride, 1 mM sodium vanadate, and protease inhibitor cocktail tablets (Boehringer Mannheim). Samples were incubated on ice for 10 minutes and supernatants were recovered by centrifuging at 14,000 rpm at 4° C. for 20 minutes. Protein concentrations were determined by the BCA method (Pierce Biochemical). Proteins were separated on SDS-PAGE and transferred to nitrocellulose membrane (Osmonics, Minnetonka, Minn.). Blocking reagent is 5% nonfat dry milk in PBS (pH 7.4). Washing buffer is PBS (pH 7.4) with 0.1% Tween 20. Primary antibodies (p53, ATM, CHK1, CHK2) are commercially available. JAZ primary antibodies are described in Yang et al., Blood 108:4136-4145, 2006. The respective HRP-conjugated secondary antibodies were purchased from Boehringer Mannheim. Signals are visualized by using ECL chemiluminescence (Amersham, Indianapolis, Ind.) or Supersignal chemiluminescence (Pierce Biochemical) and Kodak X-OMAT films. Data acquired as integrated densitometric values are transformed to percentages of the values obtained from control samples visualized on the same blot."}, "[2]": {"system": "primary cultured hepatocytes", "assay": "Cytotoxicity on primary cultured hepatocytes", "assay_type": "cell-based", "details": "24 hours after drug treatment"}, "[3]": {"system": "LNCAP prostate carcinoma cells", "assay": "Cytotoxicity on LNCAP", "assay_type": "cell-based"}, "[4]": {"system": "DU145 prostate carcinoma cells", "assay": "Cytotoxicity on DU145", "assay_type": "cell-based"}, "leukemia cells": {"system": "leukemia cells", "assay": "Cytotoxicity to leukemia cells (FIG. 13)", "assay_type": "cell-based"}, "colon cancer cells": {"system": "colon cancer cells", "assay": "Cytotoxicity to colon cancer cells (FIG. 13)", "assay_type": "cell-based"}, "[5]": {"system": "JAZ, p53, and Bax protein levels", "assay": "Western blot of JAZ, p53 and Bax", "assay_type": "cell-based", "details": "J1 25 μM", "experimental": "as §2"}, "U118 glioma cells": {"system": "U118 glioma cells", "assay": "Quantitative proteomics (iTRAQ 4plex), U118", "assay_type": "cell-based, human", "experimental": "(§3) FIGS. 14A and 14B are tables showing quantitative proteomic analysis of proteome changes 48 hours after J1 (65 μM, NCI) treatment on U87 (FIG. 14A) and U118 (FIG. 14B) glioma cells. To further explore the molecular mechanism of J1's cytotoxic effects on glioma cells, a quantitative proteomics analysis (iTRAQ 4plex) was conducted after J1 treatment. There were four groups: untreated U87 and U118 glioma cells and J1 treated U87 and U118 glioma cells at 48 hours. Each group was in triplicate. […] HSPA5 activation is a marker for Unfolded Protein Response (UPR), a pathway that can contribute to cell death or cell survival."}, "glioma cell viability": {"system": "glioma cell viability", "assay": "GI50 comparison of J1 with FDA approved chemotherapy drugs (FIG. 12)", "assay_type": "cell-based", "details": "read-out: GI50 (concentration of drug that causes 50% growth inhibition)"}, "U87MG glioma cells [6]": {"system": "U87MG glioma cells", "assay": "DNA laddering in glioma cells", "assay_type": "cell-based, human", "details": "J1 25 μM"}, "U87 glioma cells": {"system": "U87 glioma cells", "assay": "Quantitative proteomics (iTRAQ 4plex), U87", "assay_type": "cell-based, human", "experimental": "as §3"}, "lung cancer cells": {"system": "lung cancer cells", "assay": "Cytotoxicity to lung cancer cells (FIG. 13)", "assay_type": "cell-based"}, "T98G glioma cells": {"system": "T98G glioma cells", "assay": "Cell viability assay (trypan blue exclusion), T98G", "assay_type": "cell-based, human", "details": "mutant-type p53-expressing T98G cells after J1 treatment", "experimental": "as §1\n(§4) J1 and its derivatives were provided by NCI developmental therapeutic program repository or purchased from Sigma-Aldrich Inc. Temozolomide (TMZ) was obtained from Schering-Plough (Kenilworth, N.J.). Both J1 and TMZ were dissolved in DMSO and stock solution of 100 mM were made.\n(§5) JAZ siRNA and control siRNA were purchased from Invitrogen. […]\n(§6) Cell viability was measured by first seeding tumor cells in 24-well dishes at a density of 10,000 cells per well. […] Forty-eight hours after transduction, cells were collected by trypsinization followed by the trypan blue exclusion method (Yang et al., J Biol Chem 1999; 274:27399-406) and counted manually using a hemacytometer. […]"}, "[7]": {"system": "ATF-4 protein levels in U87 glioma cells", "assay": "Western blot of ATF-4, U87", "assay_type": "cell-based, human", "details": "U87, 24, 48, and 72 hours after J1 (10 and 25 μM)", "experimental": "as §2"}, "WT4 glioma cells": {"system": "WT4 glioma cells", "assay": "Cell viability assay (trypan blue exclusion), WT4", "assay_type": "cell-based, human", "details": "p53-expressing and p53-non-expressing WT4 cells, J1 25 μM", "experimental": "as §1, §4, §5, §6"}, "[8]": {"system": "ATF-4 and CHOP in U87 cells", "assay": "Immunofluorescence of ATF-4 and CHOP, U87", "assay_type": "cell-based, human"}, "U87MG glioma cells [9]": {"system": "U87MG glioma cells", "assay": "Cell viability assay (trypan blue exclusion), U87MG", "assay_type": "cell-based, human", "design": "viable U87 cells after JAZ siRNA plus J1: dose or concentration left out as unconfirmed", "experimental": "as §1, §4\nJAZ siRNA and control siRNA were purchased from Invitrogen. Cell transfection was performed by using METAFECTENE PRO (Biontex Laboratories GmbH, Germany) following the manufacturer's instructions. Briefly, 40 pmoles of JAZ (or control) siRNA was added into 30 μl serum-free medium then mixed with METAFECTENE PRO solution and incubated for 15-20 minutes at room temperature. The final siRNA-lipid complex solution was added into one 24-well-plate well. The complex-containing medium was replaced with serum-containing medium at 3 hours after the transfection to reduce the toxicity.\nCell viability was measured by first seeding tumor cells in 24-well dishes at a density of 10,000 cells per well. Two days later, cells were transduced with JAZ (or control) siRNA. Forty-eight hours after transduction, cells were collected by trypsinization followed by the trypan blue exclusion method (Yang et al., J Biol Chem 1999; 274:27399-406) and counted manually using a hemacytometer. This experiment was repeated six times for each cell line and each time in triplicate."}, "HepG2 cells": {"system": "HepG2 cells", "assay": "Cytotoxicity on HepG2", "assay_type": "cell-based, Human", "details": "dose and time-dependent"}, "glioma": {"system": "glioma", "assay": "In vitro glioma cytotoxic effects of J1 analogues (FIG. 18)", "assay_type": "cell-based"}}}
{"smiles": "O=C(Nc1ccc(Cl)c(Cl)c1)Nc1ccccc1O", "note": "[J1, N′-(2-hydroxy-phenyl)-N-(3,4-dichlorophenyl)Urea]", "values": [{"measurement": "cytotoxic effects on GL261 glioma cells", "setting": "GL261 glioma cells", "result": "progressively greater cytotoxic effects"}, {"measurement": "ATF-4 protein levels", "setting": "[1]", "result": "time- and dose dependent increase"}, {"measurement": "cytotoxic effects on primary cultured hepatocytes", "setting": "[2]", "result": "minimal cytotoxic effects"}, {"measurement": "cytotoxic effects on LNCAP cells", "setting": "[3]", "result": "strong dose and time-dependent cytotoxic effects"}, {"measurement": "cytotoxic effects on DU145 cells", "setting": "[4]", "result": "strong dose and time-dependent cytotoxic effects"}, {"measurement": "cytotoxicity to leukemia cells", "setting": "leukemia cells", "result": "cytotoxic"}, {"measurement": "cytotoxicity to colon cancer cells", "setting": "colon cancer cells", "result": "cytotoxic"}, {"measurement": "JAZ, p53, and Bax protein levels", "setting": "[5]", "result": "did not alter"}, {"measurement": "HSPA5 (GRP78, Bip) protein levels", "setting": "U118 glioma cells; U118, 48 hours after J1 (65 μM)", "result": "consistently and significantly increased"}, {"measurement": "proteins up-regulated by J1 treatment", "setting": "U118 glioma cells; U118 glioma cells", "result": "HSPA5, PBEF1, HSPA1B, VIM, LMNA and HIST2H3PS2"}, {"measurement": "GI50", "setting": "glioma cell viability", "result": 10, "unit": "µM"}, {"measurement": "DNA laddering formation", "setting": "U87MG glioma cells [6]", "result": "increased DNA laddering formation"}, {"measurement": "HSPA5 (GRP78, Bip) protein levels", "setting": "U87 glioma cells; U87, 48 hours after J1 (65 μM)", "result": "consistently and significantly increased"}, {"measurement": "PLOD2 protein level", "setting": "U87 glioma cells; U87 glioma cells", "result": "significantly down-regulated"}, {"measurement": "proteins up-regulated by J1 treatment", "setting": "U87 glioma cells; U87 glioma cells", "result": "PBEF1, HSPA5, ANXA1, TPI1, ANXA5, HSPA9, TGM2, NPM1, and RPLP2"}, {"measurement": "cytotoxicity to lung cancer cells", "setting": "lung cancer cells", "result": "cytotoxic"}, {"measurement": "viable tumor cells, time and dose course", "setting": "T98G glioma cells", "result": "time- and dose-dependent significant reduction of viable tumor cells"}, {"measurement": "ATF-4 protein levels", "setting": "[7]", "result": "time- and dose dependent increase"}, {"measurement": "viable tumor cells", "setting": "WT4 glioma cells", "result": "time-dependent significant reduction of viable tumor cells"}, {"measurement": "nuclear ATF-4 staining", "setting": "[8]; 12 hours after J1 (25 μM)", "result": "significantly increased"}, {"measurement": "CHOP staining", "setting": "[8]; 24 hours after J1 (25 μM)", "result": "significantly increased"}, {"measurement": "viable U87 cells after JAZ siRNA plus J1", "setting": "U87MG glioma cells [9]; 24 hours after JAZ siRNA transfection, J1 for additional 24 hours", "result": "did not lead to further reduction of viable U87 cells"}, {"measurement": "viable U87 cells", "setting": "U87MG glioma cells [9]; 48 hours after J1 treatment (10 μM)", "result": "reduction of viable U87 cells"}, {"measurement": "viable tumor cells, time and dose course", "setting": "U87MG glioma cells [9]; U87MG cells after J1 treatment", "result": "time- and dose-dependent significant reduction of viable tumor cells"}, {"measurement": "cytotoxic effects on HepG2 cells", "setting": "HepG2 cells", "result": "significant cytotoxic effects"}]}
{"smiles": "O=C(Nc1ccc(Cl)cc1)Nc1ccc(Cl)c(Cl)c1", "note": "[J1-h, 3-(4-chloro-phenyl)-1-(3,4-dichlorophenyl) Urea]", "values": [{"measurement": "cytotoxic effects on GL261 glioma cells", "setting": "GL261 glioma cells", "result": "progressively greater cytotoxic effects"}, {"measurement": "in vitro glioma cytotoxic effects", "setting": "glioma", "result": "glioma cytotoxic effects"}, {"measurement": "cytotoxic effects on primary cultured hepatocytes", "setting": "[2]", "result": "minimal cytotoxic effects"}, {"measurement": "cytotoxic effects on LNCAP cells", "setting": "[3]", "result": "strong dose and time-dependent cytotoxic effects"}, {"measurement": "cytotoxic effects on DU145 cells", "setting": "[4]", "result": "strong dose and time-dependent cytotoxic effects"}, {"measurement": "cytotoxic effects on HepG2 cells", "setting": "HepG2 cells", "result": "significant cytotoxic effects"}]}
{"smiles": "Cn1nnc2c(C(N)=O)ncn2c1=O", "note": "[Temozolomide, reference compound]", "values": [{"measurement": "GI50", "setting": "glioma cell viability", "result": 100, "unit": "µM"}]}
